Among the data in publication PMC13388172 (Frontiers in Pharmacology, 2026) are AUC values, retold here.

A short description of the data set: Therapeutic drug monitoring of serum ETI components and metabolites (UPLC-MS/MS), hourly for 9 hours after ingestion. The note with it: female, human, oral, full dose ETI, one pwCF, sampled hourly for 9 hours after ingestion, read-out: Area under the curve (AUC), serum. The class given is in vivo.

Protocol: The analytes of interest were assayed using an ultra-performance liquid chromatography tandem mass spectrometry method. In the concentration range from 0.01 to 20.0 mg/L, calibration curves were linear with a correlation coefficient >0.999 for all analytes.
Repeat TDM was conducted after a month on this reduced dosing strategy as this was felt likely to provide adequate time for steady-state concentrations to be achieved.

Take `CC(C)(CO)c1cc2cc(NC(=O)C3(c4ccc5c(c4)OC(F)(F)O5)CC3)c(F)cc2n1C[C@@H](O)CO` [tezacaftor]: the area under the curve (AUC) turned out to be 92600 ng·h/mL.
